{"source": "patent US10053437B2", "about": "“Salt of dicarboxylic acid compound” (Daiichi Sankyo Company, Limited, priority 2014, dated 2018)", "key": {"[1]": {"system": "intestinal phosphate absorption", "experiment": "Rat 33P phosphate oral challenge test (intestinal phosphate absorption suppression test)", "format": "in vivo", "conditions": "male SD rats, 30 mg/kg forced oral administration, serum radioactivity AUC0-60 min vs control group", "procedure": "(Test Example) Rat ^33P Phosphate Oral Challenge Test (Intestinal Phosphate Absorption Suppression Test)\nUsing male SD rats (5-7 weeks old) that had been fasted on the previous day, the compound described in the Examples was suspended or dissolved in a solvent such as 0.5% methyl cellulose (3-6 mg/mL), and the thus obtained solution was administered to each rat at a dose of 30 mg/kg by forced oral administration. On the other hand, regarding a control group, the solvent was administered to each rat at a dose of 5 mL/kg. Thirty minutes after administration, a […] phosphate solution (8.3 mM NaH2PO4, 0.35 MBq/mL) was administered to the rats at a dose of 7.2 mL/kg by forced oral administration. Then, 15, 30, 60, and 120 minutes after administration, blood was collected from the jugular vein of each rat under anesthesia with isoflurane. The radioactivity in […] was measured using a liquid scintillation counter, and the AUC0-60 min was then calculated from the radioactivity value. The obtained value was defined as an amount of phosphate absorbed. The phosphate absorption-inhibiting activity of the compound was calculated according to the following expression. Phosphate absorption-inhibiting activity (%)=[…]"}, "[2]": {"experiment": "Measurement of solubility (shaking at 37° C., UHPLC)", "format": "physicochemical", "conditions": "for solubility at 24 h / solubility at 30 min: thermodynamic from solid; for Solubility Mc pH 6.0: diluted McIlvaine buffer pH 6.0, shaking at 37° C. for 30 minutes; for Solubility diluted McIlvaine buffer pH 6.0: diluted McIlvaine buffer pH 6.0, shaking at 37° C. for 24 hours", "procedure": "With regard to the measurement of solubility, solubility was calculated by the following operations.\nApproximately 5 mg of a sample was weighed into a test tube, and then 5 mL each solution (see below) that had previously been set at 37° C. was added to the test tube.\nUsing Thermomixer Comfort (a shaker) manufactured by Eppendorf, the test tube was intensively shaken at 37° C. for 30 seconds at 750 rpm, and was then left at rest for 4 minutes 30 seconds. This shaking and resting operation was repeated 5 times (30 minutes in total).\nThe solutions obtained 30 minutes and 24 hours after initiation of the shaking were promptly filtered through a membrane filter (pore diameter: 0.45 μm), and the obtained filtrates were each diluted with a sample solution to an appropriate concentration. The concentration of a compound in the filtrate was measured by UHPLC, and solubility was then calculated.\nThe following solutions were used. • JP1: 2.0 g of sodium chloride was dissolved in 7.0 mL of hydrochloric acid and water to prepare 1000 mL of a solution (pH: about 1.2). • JP2: 118 mL of a 0.2 mol/L sodium hydroxide test solution and water were added to 250 mL of a 0.2 mol/L potassium dihydrogen phosphate test solution to prepare 1000 mL of a solution (pH: about 6.8). • Water: Ultrapure water (for use in LC/MS) manufactured by Wako Pure Chemical Industries, Ltd. was used. • Mc pH 6.0: A diluted McIlvaine buffer (pH 6.0) manufactured by Kanto Chemical Co., Inc. was used. • Mc pH 7.5: A diluted McIlvaine buffer (pH 7.5) manufactured by Kanto Chemical Co., Inc. was used.\nConditions for HPLC are as follows.\nApparatus: UHPLC H-Class manufactured by Waters\nMobile phase: A: 0.01 mol/L aqueous potassium phosphate solution (pH 4.0); B: acetonitrile\nColumn: Acquity UPLC BEH C18, 2.1 mm ID×75 mm, particle diameter: 1.7 μm (Waters)\nColumn temperature: 40° C.\nDetection wavelength: 220 nm"}, "[3]": {"conditions": "JP2 (pH about 6.8), shaking at 37° C. for 30 minutes"}, "[4]": {"conditions": "JP2 (pH about 6.8), shaking at 37° C. for 24 hours"}, "[5]": {"conditions": "shaking at 37° C. for 30 minutes"}}, "note": "Counter-ions that a name gives are not always drawn. Like-named read-outs stand apart in the source and are kept apart here."}
{"compound": "CCN([C@H]1CC[C@H](C(=O)O)CC1)S(=O)(=O)c1cccc(C(=O)Nc2ccc(N3CCCCC3)cc2C(=O)Nc2ccc(CCc3ccc(C(=O)O)cc3)cc2)c1", "note": "[Example 1, Disodium 4-[2-(4-{[2-({3-[(trans-4-carboxycyclohexyl) (ethyl)sulfamoyl]benzoyl}amino)-5-(piperidin-1-yl)benzoyl]amino}phenyl)ethyl]benzoate trihydrate]", "values": [{"measurement": "Phosphorus absorption-inhibiting activity (%)", "setting": "[1]", "value": 72, "unit": "%"}, {"measurement": "solubility at 24 h", "setting": "[2]; 37 °C, pH 6.8, aqueous buffer, JP2 (pH about 6.8), shaking at 37° C. for 24 hours, unit inferred, read-out: Solubility JP2", "value": 10.7, "unit": "µg/mL"}, {"measurement": "solubility at 30 min", "setting": "[2]; JP1 solution (sodium chloride/hydrochloric acid in water), 37 °C, pH 1.2, simulated gastric fluid, JP1 (pH about 1.2), shaking at 37° C. for 30 minutes, read-out: Solubility JP1", "value": 1, "unit": "µg/mL"}, {"measurement": "solubility at 24 h", "setting": "[2]; JP1 solution (sodium chloride/hydrochloric acid in water), 37 °C, pH 1.2, simulated gastric fluid, JP1 (pH about 1.2), shaking at 37° C. for 24 hours, unit inferred, read-out: Solubility JP1", "value": 1.3, "unit": "µg/mL"}, {"measurement": "Solubility JP2", "setting": "[2]; JP2 (pH about 6.8), shaking at 37° C. for 30 minutes, trihydrate", "value": 40.3, "unit": "µg/mL"}, {"measurement": "Solubility Mc pH 6.0", "setting": "[2]; trihydrate", "value": 1.1, "unit": "μg/mL"}, {"measurement": "Solubility diluted McIlvaine buffer pH 6.0", "setting": "[2]; trihydrate", "value": 0.1, "unit": "μg/mL"}, {"measurement": "Solubility water", "setting": "[2]; shaking at 37° C. for 30 minutes, trihydrate", "value": 949.4, "unit": "µg/mL"}, {"measurement": "Solubility water", "setting": "[2]; shaking at 37° C. for 24 hours, trihydrate", "value": 960.1, "unit": "µg/mL"}]}
{"compound": "CCN([C@H]1CC[C@H](C(=O)O)CC1)S(=O)(=O)c1cccc(C(=O)Nc2ccc(N3CCCCC3)cc2C(=O)Nc2ccc(CCc3ccc(C(=O)O)cc3)cc2)c1", "note": "[Example 8, monopiperazine salt of 4-[2-(4-{[2-({3-[(trans-4-carboxycyclohexyl)(ethyl)sulfamoyl]benzoyl}amino)-5-(piperidin-1-yl)benzoyl]amino}phenyl)ethyl]benzoic acid]", "values": [{"measurement": "solubility at 24 h", "setting": "[2]; JP1 solution (sodium chloride/hydrochloric acid in water), 37 °C, pH 1.2, simulated gastric fluid, JP1 (pH about 1.2), shaking at 37° C. for 24 hours, read-out: Solubility JP1", "value": 1.4, "unit": "µg/mL"}, {"measurement": "Solubility JP2", "setting": "[2]; [3]", "value": 105.7, "unit": "µg/mL"}, {"measurement": "Solubility JP2", "setting": "[2]; [4]", "value": 137.8, "unit": "µg/mL"}, {"measurement": "Solubility Mc pH 6.0", "setting": "[2]", "value": 3.3, "unit": "μg/mL"}, {"measurement": "Solubility diluted McIlvaine buffer pH 6.0", "setting": "[2]", "value": 0.2, "unit": "μg/mL"}, {"measurement": "Solubility water", "setting": "[2]; [5]", "value": 31.7, "unit": "µg/mL"}, {"measurement": "Solubility water", "setting": "[2]; shaking at 37° C. for 24 hours", "value": 429.5, "unit": "µg/mL"}]}
{"compound": "CCN([C@H]1CC[C@H](C(=O)O)CC1)S(=O)(=O)c1cccc(C(=O)Nc2ccc(N3CCCCC3)cc2C(=O)Nc2ccc(CCc3ccc(C(=O)O)cc3)cc2)c1", "note": "[Example 7, mono-p-toluenesulfonate of 4-[2-(4-{[2-({3-[(trans-4-carboxycyclohexyl)(ethyl)sulfamoyl]benzoyl}amino)-5-(piperidin-1-yl)benzoyl]amino}phenyl)ethyl]benzoic acid]", "values": [{"measurement": "Solubility JP1", "setting": "[2]; JP1 (pH about 1.2), shaking at 37° C. for 30 minutes", "value": 0.7, "unit": "µg/mL"}, {"measurement": "solubility at 24 h", "setting": "[2]; JP1 solution (sodium chloride/hydrochloric acid in water), 37 °C, pH 1.2, simulated gastric fluid, JP1 (pH about 1.2), shaking at 37° C. for 24 hours, unit printed as μL, read-out: Solubility JP1", "value": 0.1, "unit": "µg/mL"}, {"measurement": "Solubility JP2", "setting": "[2]; [3]", "value": 61.7, "unit": "µg/mL"}, {"measurement": "Solubility JP2", "setting": "[2]; [4]", "value": 87.5, "unit": "µg/mL"}, {"measurement": "Solubility diluted McIlvaine buffer pH 6.0", "setting": "[2]", "value": 1058.4, "unit": "μg/mL"}, {"measurement": "solubility at 30 min", "setting": "[2]; diluted McIlvaine buffer pH 7.5, 37 °C, pH 7.5, aqueous buffer, diluted McIlvaine buffer pH 7.5, shaking at 37° C. for 30 minutes, read-out: Solubility Mc pH 7.5", "value": 639, "unit": "µg/mL"}, {"measurement": "Solubility water", "setting": "[2]; [5]", "value": 0.2, "unit": "µg/mL"}, {"measurement": "Solubility water", "setting": "[2]; shaking at 37° C. for 24 hours", "value": 0.2, "unit": "µg/mL"}]}
{"compound": "CCN([C@H]1CC[C@H](C(=O)O)CC1)S(=O)(=O)c1cccc(C(=O)Nc2ccc(N3CCCCC3)cc2C(=O)Nc2ccc(CCc3ccc(C(=O)O)cc3)cc2)c1", "note": "[Example 6, potassium sodium 4-[2-(4-{[2-({3-[(trans-4-carboxycyclohexyl)(ethyl)sulfamoyl]benzoyl}amino)-5-(piperidin-1-yl)benzoyl]amino}phenyl)ethyl]benzoate hydrate]", "values": [{"measurement": "Phosphorus absorption-inhibiting activity (%)", "setting": "[1]; hydrate, 30 mg/kg", "value": 59, "unit": "%"}, {"measurement": "Solubility JP2", "setting": "[2]; JP2 (pH about 6.8), shaking at 37° C. for 30 minutes, hydrate", "value": 22.5, "unit": "µg/mL"}, {"measurement": "Solubility JP2", "setting": "[2]; JP2 (pH about 6.8), shaking at 37° C. for 24 hours, hydrate", "value": 968.5, "unit": "µg/mL"}, {"measurement": "Solubility water", "setting": "[2]; shaking at 37° C. for 30 minutes, hydrate", "value": 2.2, "unit": "µg/mL"}, {"measurement": "Solubility water", "setting": "[2]; shaking at 37° C. for 24 hours, hydrate", "value": 940.7, "unit": "µg/mL"}]}
